Calls of active or inactive are those of the source.

The target in one series is Cytochrome P450 2C19 (Homo sapiens, UniProt P33261). The experiment in a line: Cytochrome panel assay with activity outcomes. Panel member name: p450-cyp2c19 Compounds with AC50 equal or less than 10 uM are considered active. The series is classed as functional.
For the next series, the target named is T1, Cytochrome P450 1A2 (Homo sapiens, UniProt P05177).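 Note: PubChem cytochrome P450 panel assay, CYP1A2 panel member.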
T1 sequence (P05177 whole entry): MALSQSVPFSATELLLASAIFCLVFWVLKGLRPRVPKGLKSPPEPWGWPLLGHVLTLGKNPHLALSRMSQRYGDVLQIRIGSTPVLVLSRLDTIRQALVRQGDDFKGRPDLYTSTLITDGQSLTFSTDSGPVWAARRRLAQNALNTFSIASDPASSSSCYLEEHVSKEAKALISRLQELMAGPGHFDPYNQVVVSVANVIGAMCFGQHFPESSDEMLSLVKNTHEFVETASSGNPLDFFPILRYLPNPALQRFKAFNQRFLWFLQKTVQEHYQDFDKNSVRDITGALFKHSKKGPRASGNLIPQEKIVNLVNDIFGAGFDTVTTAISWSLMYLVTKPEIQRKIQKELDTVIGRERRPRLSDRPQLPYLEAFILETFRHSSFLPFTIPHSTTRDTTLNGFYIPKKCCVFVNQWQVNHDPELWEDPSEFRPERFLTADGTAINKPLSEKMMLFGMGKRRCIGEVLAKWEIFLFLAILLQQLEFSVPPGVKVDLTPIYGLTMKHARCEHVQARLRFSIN

The target in the next series is Cytochrome P450 2C9 (Homo sapiens, UniProt P11712).
Series [1] has as its target T2, Calpain-2 catalytic subunit (Sus scrofa, UniProt P43367).
T2 sequence (P43367 whole entry): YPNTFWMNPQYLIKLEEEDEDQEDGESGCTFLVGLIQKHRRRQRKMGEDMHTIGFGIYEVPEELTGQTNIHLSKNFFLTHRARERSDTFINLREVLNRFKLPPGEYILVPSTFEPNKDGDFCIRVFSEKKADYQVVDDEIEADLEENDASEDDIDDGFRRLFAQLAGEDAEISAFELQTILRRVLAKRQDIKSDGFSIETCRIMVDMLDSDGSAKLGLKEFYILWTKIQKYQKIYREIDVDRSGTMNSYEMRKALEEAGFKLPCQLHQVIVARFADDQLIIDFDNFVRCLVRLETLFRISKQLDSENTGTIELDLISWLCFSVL
The series can be described thus: m-calpain protease blockers, concentration series – biochemical, fluorogenic peptide substrate, dose response (AID 1420). The series is classed as functional.

Series [2] in a line: Trypanosoma cruzi growth suppression in host cells – NIH3T3 host cells, beta-gal luminescence, confirmation (AID 2044).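 Note: intracellular parasites grown in NIH/3T3 mouse fibroblasts as host cells; luminescent beta-galactosidase reporter signal from transgenic T. cruzi replicating inside host cells; inhibitors lower the luminescence signal.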 The series is classed as functional, cell-based.
The nature of series [3]: NIH3T3 cell viability loss – ATP luminescence, mouse fibroblasts, counter-screen, dose response (AID 2010).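 Note: cells exposed to compound for about 90 hours before reading.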 It counts as functional, cell-based.
The test system of another series is INS1. The series can be described thus: INS-1E survival protection against cytokine death – cell-based, luminescence, retest, dose response (AID 449756).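 Note: cell death triggered by IL-1 beta plus TNF-alpha plus IFN-gamma mixture; protective hits raise ATP signal compared with cytokine alone wells.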 The series is classed as functional. The conditions noted are these: Rattus norvegicus.
For a further series, the target named is T3, Protein skinhead-1 (Caenorhabditis elegans, UniProt P34707).
T3 sequence (P34707 whole entry): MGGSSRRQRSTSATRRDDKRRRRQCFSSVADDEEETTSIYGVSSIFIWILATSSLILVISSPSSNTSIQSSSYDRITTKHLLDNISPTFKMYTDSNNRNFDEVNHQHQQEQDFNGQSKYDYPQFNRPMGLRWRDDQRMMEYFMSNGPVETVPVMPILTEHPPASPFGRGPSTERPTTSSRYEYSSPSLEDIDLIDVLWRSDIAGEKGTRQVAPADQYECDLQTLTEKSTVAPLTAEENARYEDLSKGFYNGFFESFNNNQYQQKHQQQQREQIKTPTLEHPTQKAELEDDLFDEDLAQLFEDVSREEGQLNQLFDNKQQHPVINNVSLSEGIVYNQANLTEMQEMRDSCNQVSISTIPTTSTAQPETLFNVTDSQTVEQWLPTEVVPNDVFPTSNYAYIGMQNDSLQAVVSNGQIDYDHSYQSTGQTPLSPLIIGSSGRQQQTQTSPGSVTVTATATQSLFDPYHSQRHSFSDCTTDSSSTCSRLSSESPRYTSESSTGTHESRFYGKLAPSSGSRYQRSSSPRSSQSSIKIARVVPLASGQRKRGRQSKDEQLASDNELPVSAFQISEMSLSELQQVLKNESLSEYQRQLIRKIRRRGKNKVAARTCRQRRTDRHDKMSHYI
The series is classed as functional.

The target of a further series is Cytochrome P450 2D6 (Homo sapiens, UniProt P10635).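 Note: CYP2D6 member of a cytochrome P450 panel assay.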
Series [4] is described as follows: intracellular Trypanosoma cruzi inhibitors in host cells – cell-based, plate reader, cherry-pick samples, set 3, dose response (AID 651818).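 Note: compounds incubated with infected cells for about four days.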 It counts as functional.
In series [5] the target is T4, Corticotropin-releasing factor receptor 2/Corticotropin-releasing factor-binding protein (Homo sapiens, UniProt P24387+Q13324).
T4 sequence (Q13324 whole entry): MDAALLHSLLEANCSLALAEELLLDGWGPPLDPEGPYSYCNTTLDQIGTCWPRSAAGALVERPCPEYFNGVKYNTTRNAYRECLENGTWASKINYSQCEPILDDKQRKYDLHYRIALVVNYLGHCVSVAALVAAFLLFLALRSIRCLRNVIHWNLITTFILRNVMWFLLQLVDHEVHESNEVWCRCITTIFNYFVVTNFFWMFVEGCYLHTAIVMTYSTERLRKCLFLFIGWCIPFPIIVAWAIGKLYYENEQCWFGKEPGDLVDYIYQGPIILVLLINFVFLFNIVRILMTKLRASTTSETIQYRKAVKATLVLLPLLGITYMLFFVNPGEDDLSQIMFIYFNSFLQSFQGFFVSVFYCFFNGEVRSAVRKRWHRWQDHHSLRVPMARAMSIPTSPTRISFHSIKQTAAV
T4 sequence (P24387 whole entry): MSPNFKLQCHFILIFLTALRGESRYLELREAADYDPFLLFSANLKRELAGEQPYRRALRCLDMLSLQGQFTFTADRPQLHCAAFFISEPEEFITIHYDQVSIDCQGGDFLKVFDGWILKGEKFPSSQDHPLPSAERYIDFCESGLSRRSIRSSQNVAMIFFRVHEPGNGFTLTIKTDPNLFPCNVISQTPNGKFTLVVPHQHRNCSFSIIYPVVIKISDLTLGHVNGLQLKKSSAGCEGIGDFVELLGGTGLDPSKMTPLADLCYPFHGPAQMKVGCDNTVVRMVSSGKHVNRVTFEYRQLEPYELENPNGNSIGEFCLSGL
The series can be described thus: activators of CRF receptor 2 with binding protein – uHTS hits, confirmation (AID 602473). It counts as functional. As to conditions: read-out: EC50_Mean.

Series [6] is described as follows: blockers of HIV-1 envelope-mediated cell-cell fusion – cherry-pick, dose response (AID 652057). It counts as functional, cell-based.
Series [7] in a line: blockers of HIV-1 ZM109 envelope-driven cell-cell fusion – HeLa effector, CEM target cells, luciferase, cherry-pick, dose response (AID 652058).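 Note: luciferase signal from HIV-1 Env mediated cell-cell fusion of effector and target cells.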 The series is classed as functional, cell-based.
Series [8] in a line: HIV-1 AD8 envelope cell-cell fusion blockers – cherry-pick, dose response (AID 652062).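 Note: luciferase signal from cell-cell fusion driven by HIV-1 clade B AD8 Env; potency is for inhibitors of fusion seen as a drop in luminescence.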 It counts as functional, cell-based.
Series [9] in a line: P. falciparum Dd2 growth inhibitors, dose response, SYBR Green, cherry-picked samples (AID 1159567). It counts as functional, cell-based.

Chain of Cytochrome P450 2C9 (P11712 whole entry): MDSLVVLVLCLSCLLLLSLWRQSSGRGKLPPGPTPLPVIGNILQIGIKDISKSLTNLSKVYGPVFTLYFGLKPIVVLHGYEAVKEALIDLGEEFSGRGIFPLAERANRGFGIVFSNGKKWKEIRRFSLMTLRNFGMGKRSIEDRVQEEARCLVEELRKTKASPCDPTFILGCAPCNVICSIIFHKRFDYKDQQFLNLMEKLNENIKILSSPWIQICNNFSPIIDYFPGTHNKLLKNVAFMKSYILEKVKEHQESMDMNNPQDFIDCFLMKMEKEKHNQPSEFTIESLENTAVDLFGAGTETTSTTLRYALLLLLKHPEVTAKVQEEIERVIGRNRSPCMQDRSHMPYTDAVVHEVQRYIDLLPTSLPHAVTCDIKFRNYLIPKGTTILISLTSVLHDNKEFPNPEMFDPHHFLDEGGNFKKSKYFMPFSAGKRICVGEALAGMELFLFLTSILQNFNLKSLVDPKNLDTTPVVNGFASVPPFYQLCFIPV
Chain of Cytochrome P450 2C19 (P33261 whole entry): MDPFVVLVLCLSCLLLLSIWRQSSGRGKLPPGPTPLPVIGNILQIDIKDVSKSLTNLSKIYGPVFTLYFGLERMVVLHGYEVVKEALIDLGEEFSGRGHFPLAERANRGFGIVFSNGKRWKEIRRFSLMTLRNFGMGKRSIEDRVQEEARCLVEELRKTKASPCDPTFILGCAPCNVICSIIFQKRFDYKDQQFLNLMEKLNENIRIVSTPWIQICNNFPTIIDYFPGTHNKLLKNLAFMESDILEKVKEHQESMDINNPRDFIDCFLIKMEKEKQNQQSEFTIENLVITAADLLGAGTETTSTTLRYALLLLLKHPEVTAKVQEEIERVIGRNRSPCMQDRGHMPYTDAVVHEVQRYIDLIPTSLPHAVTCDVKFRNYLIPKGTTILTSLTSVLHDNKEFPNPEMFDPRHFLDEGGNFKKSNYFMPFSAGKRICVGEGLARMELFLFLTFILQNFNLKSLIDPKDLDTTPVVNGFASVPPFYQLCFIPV
Chain of Cytochrome P450 2D6 (P10635 whole entry): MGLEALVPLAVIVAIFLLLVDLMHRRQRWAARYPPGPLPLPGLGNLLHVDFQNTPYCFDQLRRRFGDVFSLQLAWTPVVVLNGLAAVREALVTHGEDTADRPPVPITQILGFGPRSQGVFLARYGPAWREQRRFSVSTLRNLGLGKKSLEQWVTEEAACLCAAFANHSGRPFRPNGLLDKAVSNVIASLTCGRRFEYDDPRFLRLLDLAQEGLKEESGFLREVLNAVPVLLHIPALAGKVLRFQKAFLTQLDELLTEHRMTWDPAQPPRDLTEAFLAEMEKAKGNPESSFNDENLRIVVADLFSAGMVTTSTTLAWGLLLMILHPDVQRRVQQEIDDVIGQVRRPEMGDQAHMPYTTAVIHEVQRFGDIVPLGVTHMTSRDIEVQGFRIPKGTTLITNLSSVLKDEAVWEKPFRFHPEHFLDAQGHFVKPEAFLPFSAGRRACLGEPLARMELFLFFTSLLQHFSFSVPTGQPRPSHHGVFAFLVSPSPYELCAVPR

On to `CCOC(=O)c1c(C)c(C(=O)N2CCN(C(=O)c3ccco3)CC2)c(C)n1C`, for which the AC50 on Cytochrome P450 2C19 (read-out: AC50) was 28.2 µM (inconclusive); at Cytochrome P450 1A2, 39.8 µM (inconclusive); at Cytochrome P450 2C9, “inconclusive”. Turning to `CC(C)CCN(C(=O)Nc1ccccc1)C(C)c1cccs1` (stereo not drawn), the IC50 in series [1] is recorded as 20.3 µM (not active). With `C[C@@]1(O)CCOC(=O)C1`, the AC50 entry on Cytochrome P450 2C19 and on Cytochrome P450 2C9 was “inconclusive” throughout. In the case of `CCN=C(S)N(CCc1c(C)[nH]c2ccc(Cl)cc12)Cc1ccco1`, the values for the EC50 in series [2] and in series [3] were 2.81 µM (active) and > 60 µM (not active), respectively. Also, the IC50 in [1] is recorded as 9.05 µM (not active). Turning to `CCCC(=O)Nc1ccccc1NC(=O)CCC`, the IC50 in series [1] is listed as > 50 µM (not active).

Regarding `CC(=O)c1c(C)[nH]c(C(=O)OCc2cccc(Cl)c2)c1C`, the IC50 in series [1] is 7.75 µM (not active). Moreover, the half-maximal activity concentration (AC50) in the series on INS1 was 20 µM (active). Turning to `CN(CC(=O)Nc1nc2ccccc2s1)S(=O)(=O)c1ccc(Cl)cc1`, the IC50 at Protein skinhead-1 is > 100 µM (inactive). `CN(C)c1ccc(-c2nc(N(C)Cc3ccco3)c3ccccc3n2)cc1`: the AC50 was 20 µM (inconclusive) at Cytochrome P450 2C19 (read-out: AC50) and “inconclusive” on Cytochrome P450 2C9. For the compound `COc1ccccc1CNC(=O)CCCn1c(=O)c2ccccc2n(CC(=O)NC2CCCC2)c1=O`, at Cytochrome P450 2C9, the AC50 result is reported as “inconclusive”. For the compound `COCCNc1ccnc(-c2ccccc2C(F)(F)F)n1`, the results for the AC50 on Cytochrome P450 1A2 and at Cytochrome P450 2C9 were 20 µM (inconclusive) and “inconclusive”, respectively. In the case of `CN(C(=O)c1ccco1)c1nc(-c2ccccc2)cs1`, the IC50 on Protein skinhead-1 is 100 µM (inactive).

For the compound `Cc1cccc(N2CCN(C(=O)CN3C(=O)C4CC=CCC4C3=O)CC2)c1C` (stereo not drawn), the IC50 in series [1] is given as > 50 µM (not active). Take `O=S(=O)(NCc1cc(-c2ccccc2Cl)no1)c1ccccc1`: the AC50 at Cytochrome P450 2D6 was 39.8 µM (inconclusive); at Cytochrome P450 2C9 it was “inconclusive”. As for `COc1ccc(NC(=O)Nc2cccc3c2O[C@H](CN(C)S(=O)(=O)c2ccc(F)cc2)[C@@H](C)CN([C@H](C)CO)C3=O)cc1`, in [4], the AC50 was 20 µM (inactive).

`C/C(=N\NC(=S)NC1CCCCC1)c1ccc(OC(F)F)cc1OC(F)F`: the IC50 in series [1] is recorded as 3.12 µM (not active). In the case of `CCOc1ccc(/C=N/OCC(=O)NC(c2ccccc2)c2ccccc2)cc1`, in [1], the IC50 was 7.59 µM (not active). Also, the EC50 in series [5] was > 53 µM (inactive). As to `C[C@@H]1CCCCO[C@H](CN(C)CC2CCCCC2)[C@@H](C)CN([C@H](C)CO)C(=O)c2cc(NC(=O)Nc3ccc4c(c3)OCO4)ccc2O1`, in series [4], the AC50 is 1.96 µM (active). In the case of `Cc1ccc(S(=O)(=O)N(C)C[C@H]2OCCCC[C@@H](C)Oc3ccc(NS(=O)(=O)c4ccc(Cl)cc4)cc3C(=O)N([C@H](C)CO)C[C@@H]2C)cc1`, the AC50 in [4] is 3.91 µM (active). With `C[C@@H]1CN([C@H](C)CO)C(=O)Cc2cc(NC(=O)Cc3ccccc3)ccc2O[C@H]1CN(C)Cc1ccc(C(F)(F)F)cc1`, the AC50 in series [4] was 5.77 µM (active).

Regarding `C[C@@H]1CN([C@@H](C)CO)C(=O)c2cccc(NC(=O)Nc3ccc(C(F)(F)F)cc3)c2O[C@H]1CN(C)Cc1ccc2c(c1)OCO2`, in [4], the AC50 was 1.34 µM (active).

`C[C@@H]1CN([C@H](C)CO)C(=O)Cc2cc(NS(=O)(=O)c3ccc(Cl)cc3)ccc2O[C@H]1CN(C)Cc1ccc(Oc2ccccc2)cc1`: in series [4], the AC50 was 4.56 µM (active). As to `C[C@H]1CN([C@@H](C)CO)C(=O)c2ccccc2-c2ccccc2CO[C@@H]1CN(C)C(=O)CCC(F)(F)F`, the AC50 in [6] is 1.1 µM (active); in series [7], 1.48 µM (active); in [8], 2.55 µM (active).

`COc1ccccc1NC(=O)N[C@H]1C=C[C@@H](CC(=O)N[C@H](C)c2ccccc2)O[C@H]1CO`: the concentration at half-maximal activity (AC50) is 4.72 µM (active) in [6], 3.38 µM (active) in series [7] and 11 µM (active) in series [8]. `CCC(=O)N1C[C@H](C)[C@H](OC)CN(C)C(=O)c2cc(NC(=O)Nc3cccc(F)c3)ccc2OC[C@@H]1C`: the AC50 in series [9] is 9.89 µM (active). With `O=C(C[C@H]1C[C@H]2c3cc(NC(=O)Nc4ccccc4)ccc3O[C@H]2[C@@H](CO)O1)NC1CCCC1`, the AC50 in series [9] was 6.1 µM (active). On the same count and under the same terms, to `O=C(C[C@@H]1CC[C@@H]2[C@H](COC[C@@H](O)CN2C(=O)c2ccccc2F)O1)NCc1ccc(-c2ccccc2)cc1` belongs 6.33 µM (active); to `COc1cccc(S(=O)(=O)N(C)C[C@@H]2Oc3ncc(C#Cc4ccc(C(F)(F)F)cc4)cc3C(=O)N([C@H](C)CO)C[C@@H]2C)c1`, 4.11 µM (active). With `Nc1ccccc1S(N)(=O)=O`, the AC50 entry on Cytochrome P450 2C9 is “inconclusive”. Same read-out and setting: in the case of `COC(=O)Nc1nc2ccc(C(=O)c3ccccc3)cc2[nH]1` [MEBENDAZOLE] it was “inconclusive”.

These data come from ChEMBL document CHEMBL1201862, “PubChem BioAssay data set” (2004).
